Test results reported in US20250114374A1, “BCL-2 INHIBITORS” (Newave Pharmaceutical Inc., priority 2021, published 2025).
Like-named read-outs stand apart in the source and are kept apart here.

Assays:
[1] = molecular target: T1, Bcl-w (Homo sapiens, UniProt Q92843); details: cited from earlier work
T1 sequence (Q92843 1-193): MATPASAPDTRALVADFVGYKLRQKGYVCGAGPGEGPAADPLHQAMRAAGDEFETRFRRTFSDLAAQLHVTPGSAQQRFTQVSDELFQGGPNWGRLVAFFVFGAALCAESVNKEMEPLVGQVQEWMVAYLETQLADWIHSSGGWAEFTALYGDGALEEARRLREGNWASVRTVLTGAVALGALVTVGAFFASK

[2] = tested on: xenograft models of small-cell lung cancer and acute lymphoblastic leukemia; details: oral administration, alone; cited from earlier work
[3] = tested on: circulating platelets; details: cited from earlier work
[4] = tested on: RS4; 11 with G101V mutation; assay: In vitro anti-proliferation assay (ATPlite luminescence) in BCL-2-dependent ALL cell line RS4;11 with G101V mutation; type: cell-based; details: read-out: RS411-G101V IC50
Summary of the method: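 IC50 came from luminescent ATP quantification (ATPlite) following cell lysis. Compound dose ranges were applied for roughly 72 h to about 1×10^4 G101V-mutant RS4;11 cells per well, in 10% FBS medium.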

[5] = cellular anti-proliferative IC50, about 72 hours, medium with 10% FBS, ATPlite

Row | SMILES | IC50 [4, 5] | also measured
1 | CC1(C)CCC(c2ccc(Cl)cc2)=C(CN2CCN(c3ccc(C(=O)NS(=O)(=O)c4ccc(N[C@H](CCN5CCOCC5)CSc5ccccc5)c(S(=O)(=O)C(F)(F)F)c4)cc3)CC2)C1 [ABT-263] |  | Ki [1]: ≤ 1 nM; tumor regression [2]: complete tumor regressions; number of circulating platelets ([3]; clinical trial): rapid, concentration-dependent decrease; dose-limiting toxicity ([3]; single-agent treatment in patients): thrombocytopenia
2 | COc1cc(CN2CCN(C3CC4(CCN(c5ccc(C(=O)NS(=O)(=O)c6ccc(NCC7CCC(C)(O)CC7)c([N+](=O)[O-])c6)c(N6c7cc8cc[nH]c8nc7O[C@H]7COCC[C@@H]76)c5)CC4)C3)[C@@H](c3ccccc3OC(C)C)C2)cnc1N1CCOC[C@H]1C (stereo partly drawn) [Example 111, 2-[(3R,8S)-2,5-dioxa-9,15,17-triazatetracyclo[8.7.0.0^{3,8}.0^{12,16}]heptadeca-1(10),11,13,16-tetraen-9-yl]-4-{2-[(2S)-2-(2-isopropoxyphenyl)-4-({5-methoxy-6-[(3R)-3-methylmorpholin-4-yl]pyridin-3-yl}methyl)piperazin-1-yl]-7-azaspiro[3.5]nonan-7-yl}-N-[3-nitro-4-({[(1r,4r)-4-hydroxy-4-methylcyclohexyl]methyl}amino)benzenesulfonyl]benzamide] | 10.7 nM | 
3 | CC(C)Oc1ccccc1[C@@H]1CN(Cc2ccc(F)c(F)c2)CCN1C1CC2(CCN(c3ccc(C(=O)NS(=O)(=O)c4cc5c(c([N+](=O)[O-])c4)N[C@H](C4CCOCC4)CO5)c(N4c5cc6cc[nH]c6nc5O[C@@H]5CCOC[C@H]54)c3)CC2)C1 [Example 241, 4-{2-[(2R)-4-[(3,4-difluorophenyl)methyl]-2-(2-isopropoxyphenyl)piperazin-1-yl]-7-azaspiro[3.5]nonan-7-yl}-2-[(3R,8R)-5,9-dioxa-2,11,13-triazatetracyclo[8.7.0.0^{3,8}.0^{12,16}]heptadeca-1(10),11,14,16-tetraen-2-yl]-N-[(3R)-5-nitro-3-(oxan-4-yl)-3,4-dihydro-2H-1,4-benzoxazin-7-ylsulfonyl]benzamide] | 4.45 nM | 
4 | COc1ncc(CN2CCN(C3CC4(CCN(c5ccc(C(=O)NS(=O)(=O)c6ccc(NCC7CCC(C)(O)CC7)c([N+](=O)[O-])c6)c(N6c7cc8cc[nH]c8nc7O[C@H]7COCC[C@@H]76)c5)CC4)C3)[C@@H](c3ccccc3OC(C)C)C2)cc1C (stereo partly drawn) [Example 158, N-((4-((((1r,4r)-4-hydroxy-4-methylcyclohexyl)methyl)amino)-3-nitrophenyl)sulfonyl)-4-(2-((S)-2-(2-isopropoxyphenyl)-4-((6-methoxy-5-methylpyridin-3-yl)methyl)piperazin-1-yl)-7-azaspiro[3.5]nonan-7-yl)-2-((5aS,9aR)-6,7,9,9a-tetrahydro-1H-pyrano[3,4-b]pyrrolo[3′,2′:5,6]pyrido[3,2-e][1,4]oxazin-5(5aH)-yl)benzamide] | 21.2 nM | 
5 | COc1cc(CN2CCN([C@@H]3CC4(CCN(c5ccc(C(=O)NS(=O)(=O)c6ccc(NCC7CCC(C)(O)CC7)c([N+](=O)[O-])c6)c(N6c7cc8cc[nH]c8nc7O[C@H]7COCC[C@@H]76)c5)CC4)[C@H]3C)[C@@H](c3ccccc3OC(C)C)C2)cnc1N1CCOCC1 (stereo partly drawn) [Example 121, 2-[(3R,8S)-2,5-dioxa-9,15,17-triazatetracyclo[8.7.0.0^{3,8}.0^{12,16}]heptadeca-1(10),11,13,16-tetraen-9-yl]-4-[(1R,2R)-2-[(2S)-2-(2-isopropoxyphenyl)-4-{[5-methoxy-6-(morpholin-4-yl)pyridin-3-yl]methyl}piperazin-1-yl]-1-methyl-7-azaspiro[3.5]nonan-7-yl]-N-[3-nitro-4-({[(1r,4r)-4-hydroxy-4-methylcyclohexyl]methyl}amino)benzenesulfonyl]benzamide] | 47.9 nM | 
6 | CC(C)Oc1ccccc1[C@@H]1CN([C@H]2CCCOC2)CCN1C1CC2(CCN(c3ccc(C(=O)NS(=O)(=O)c4cc5c(c([N+](=O)[O-])c4)N[C@H](C4CCOCC4)CO5)c(N4c5cc6cc[nH]c6nc5O[C@H]5COCC[C@@H]54)c3)CC2)C1 [Example 175, 4-(2-((R)-2-(2-isopropoxyphenyl)-4-((S)-tetrahydro-2H-pyran-3-yl)piperazin-1-yl)-7-azaspiro[3.5]nonan-7-yl)-N-(((R)-5-nitro-3-(tetrahydro-2H-pyran-4-yl)-3,4-dihydro-2H-benzo[b][1,4]oxazin-7-yl)sulfonyl)-2-((5aS,9aR)-6,7,9,9a-tetrahydro-1H-pyrano[3,4-b]pyrrolo[3′,2′:5,6]pyrido[3,2-e][1,4]oxazin-5(5aH)-yl)benzamide] |  | IC50 ([4]; Homo sapiens, RS4-11, 72 h): 67.2 nM
7 | Cc1cc2c(CN3CCN(C4CC5(CCN(c6ccc(C(=O)NS(=O)(=O)c7ccc(NCC8CCC(C)(O)CC8)c([N+](=O)[O-])c7)c(N7c8cc9cc[nH]c9nc8O[C@H]8COCC[C@@H]87)c6)CC5)C4)[C@H](c4ccccc4C)C3)cnc(N3CCOCC3)c2o1 (stereo partly drawn) [Example 146, 2-[(3R,8S)-2,5-dioxa-9,15,17-triazatetracyclo[8.7.0.0^{3,8}.0^{12,16}]heptadeca-1(10),11,13,16-tetraen-9-yl]-4-{2-[(2R)-4-{[2-methyl-7-(morpholin-4-yl)furo[2,3-c]pyridin-4-yl]methyl}-2-(2-methylphenyl)piperazin-1-yl]-7-azaspiro[3.5]nonan-7-yl}-N-[3-nitro-4-({[(1r,4r)-4-hydroxy-4-methylcyclohexyl]methyl}amino)benzenesulfonyl]benzamide] | 8.2 nM | 
8 | COc1c(N2CCOC[C@@H]2C)ncc2c1COC[C@@H]2N1CCN(C2CC3(CCN(c4ccc(C(=O)NS(=O)(=O)c5cc6c(c([N+](=O)[O-])c5)N[C@H](C5CCOCC5)CO6)c(N5c6cc7cc[nH]c7nc6O[C@H]6COCC[C@@H]65)c4)CC3)C2)[C@H](c2ccccc2OC(C)C)C1 [Example 251, 2-[(3R,8S)-2,5-dioxa-9,15,17-triazatetracyclo[8.7.0.0^{3,8}.0^{12,16}]heptadeca-1(10),11,13,16-tetraen-9-yl]-4-{2-[(2R)-2-(2-isopropoxyphenyl)-4-[(4R)-8-methoxy-7-[(3S)-3-methylmorpholin-4-yl]-1H,3H,4H-pyrano[4,3-c]pyridin-4-yl]piperazin-1-yl]-7-azaspiro[3.5]nonan-7-yl}-N-[(3R)-5-nitro-3-(oxan-4-yl)-3,4-dihydro-2H-1,4-benzoxazin-7-ylsulfonyl]benzamide] | 26.9 nM | 
9 | CC(C)c1ccccc1[C@H]1CN(Cc2ccc(F)c(F)c2)CCN1C1CC2(CCN(c3ccc(C(=O)NS(=O)(=O)c4ccc(NCC5CCOCC5)c([N+](=O)[O-])c4)c(N4c5cc6cc[nH]c6nc5O[C@H]5COCC[C@@H]54)c3)CC2)C1 [Example 166, 4-{2-[(2S)-4-[(3,4-difluorophenyl)methyl]-2-(2-isopropylphenyl)piperazin-1-yl]-7-azaspiro[3.5]nonan-7-yl}-2-[(3R,8S)-2,5-dioxa-9,15,17-triazatetracyclo[8.7.0.0^{3,8}.0^{12,16}]heptadeca-1(10),11,13,16-tetraen-9-yl]-N-{3-nitro-4-[(oxan-4-ylmethyl)amino]benzenesulfonyl}benzamide] | 585 nM | 
10 | COc1ncc(CN2CCN(C3CC4(CCN(c5ccc(C(=O)NS(=O)(=O)c6ccc(NCC7CCC(C)(O)CC7)c([N+](=O)[O-])c6)c(N6c7cc8cc[nH]c8nc7O[C@H]7COCC[C@@H]76)c5)CC4)C3)[C@@H](c3ccccc3OC(C)C)C2)cc1N1CCOCC1 (stereo partly drawn) [Example 163, N-((4-((((1r,4r)-4-hydroxy-4-methylcyclohexyl)methyl)amino)-3-nitrophenyl)sulfonyl)-4-(2-((S)-2-(2-isopropoxyphenyl)-4-((6-methoxy-5-morpholinopyridin-3-yl)methyl)piperazin-1-yl)-7-azaspiro[3.5]nonan-7-yl)-2-((5aS,9aR)-6,7,9,9a-tetrahydro-1H-pyrano[3,4-b]pyrrolo[3′,2′:5,6]pyrido[3,2-e][1,4]oxazin-5(5aH)-yl)benzamide] | 27.9 nM | 
11 | Cc1ccccc1[C@@H]1CN(CC2CCOCC2)CCN1C1CC2(CCN(c3ccc(C(=O)NS(=O)(=O)c4cc5c(c([N+](=O)[O-])c4)N[C@H](C4CCOCC4)CO5)c(N4c5cc6cc[nH]c6nc5O[C@H]5COCC[C@@H]54)c3)CC2)C1 [Example 184, 2-[(3R,8S)-2,5-dioxa-9,15,17-triazatetracyclo[8.7.0.0^{3,8}.0^{12,16}]heptadeca-1(10),11,13,16-tetraen-9-yl]-4-{2-[(2R)-2-(2-methylphenyl)-4-(oxan-4-ylmethyl)piperazin-1-yl]-7-azaspiro[3.5]nonan-7-yl}-N-[(3R)-5-nitro-3-(oxan-4-yl)-3,4-dihydro-2H-1,4-benzoxazin-7-ylsulfonyl]benzamide] | 40.6 nM | 
